# Source: ChEMBL document CHEMBL1201861, “Genomics of Drug Sensitity in Cancer screening data, Wellcome Trust Sanger Institute”
# pIC50: −log10 of the molar value.
# Columns and labels:
# Type in all cases: functional, cell-based
# [1] = tested on: KYSE-150 cell line; assay: cells; details: Homo sapiens;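 note: growth inhibition of human KYSE-150 cells, read out with a cell viability assay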
# Description: SANGER: Inhibition of human KYSE-150 cell growth in a cell viability assay.
# [2] = tested on: MKN-28; assay: cells; details: Homo sapiens;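 note: cell viability assay read-out, IC50 reflects suppression of growth of human MKN-28 cells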
# Description: SANGER: Inhibition of human MKN28 cell growth in a cell viability assay.
# [3] = tested on: HuO9; assay: cells; details: Homo sapiens;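 note: growth inhibition of HuO9 cells, read out with a cell viability assay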
# Description: SANGER: Inhibition of human HuO9 cell growth in a cell viability assay.
# [4] = tested on: ChaGo-K-1; assay: cells; details: Homo sapiens;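 note: growth inhibition of ChaGo-K-1 cells, read out with a cell viability assay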
# Description: SANGER: Inhibition of human ChaGo-K-1 cell growth in a cell viability assay.
# [5] = tested on: CAL-39; assay: cells; details: Homo sapiens;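 note: cell viability assay measuring growth inhibition of CAL-39 cells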
# Description: SANGER: Inhibition of human CAL-39 cell growth in a cell viability assay.
# [6] = tested on: HTC-C3; assay: cells; details: Homo sapiens;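 note: inhibition of cell growth, read out with a cell viability assay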
# Description: SANGER: Inhibition of human HTC-C3 cell growth in a cell viability assay.
# [7] = tested on: Calu-3; assay: cells; details: Homo sapiens;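 note: growth inhibition of human Calu-3 cells, determined with a cell viability assay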
# Description: SANGER: Inhibition of human Calu-3 cell growth in a cell viability assay.
# [8] = tested on: U-118-MG; assay: cells; details: Homo sapiens
# Description: SANGER: Inhibition of human U-118-MG cell growth in a cell viability assay.
# [9] = tested on: RMG-I; assay: cells; details: Homo sapiens;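 note: growth inhibition of human RMG-I cells, read out with a cell viability assay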
# Description: SANGER: Inhibition of human RMG-I cell growth in a cell viability assay.
# [10] = tested on: HCT-15; assay: cells; details: Homo sapiens;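 note: cell viability readout, IC50 reflecting suppression of HCT-15 cell growth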
# Description: SANGER: Inhibition of human HCT-15 cell growth in a cell viability assay.
# [11] = tested on: SK-MEL-30; assay: cells; details: Homo sapiens;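 note: growth inhibition of SK-MEL-30 cells, determined with a cell viability assay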
# Description: SANGER: Inhibition of human SK-MEL-30 cell growth in a cell viability assay.
# [12] = tested on: HCC1395; assay: cells; details: Homo sapiens;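 note: growth inhibition of HCC1395 cells, read out by a cell viability assay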
# Description: SANGER: Inhibition of human HCC1395 cell growth in a cell viability assay.
# [13] = tested on: CMK; assay: cells; details: Homo sapiens;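 note: growth inhibition of CMK cells, read out as cell viability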
# Description: SANGER: Inhibition of human CMK cell growth in a cell viability assay.
# [14] = tested on: ECC4; assay: cells; details: Homo sapiens;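 note: growth inhibition of ECC4 cells, read out with a cell viability assay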
# Description: SANGER: Inhibition of human ECC4 cell growth in a cell viability assay.
# [15] = tested on: MC-IXC; assay: cells; details: Homo sapiens;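 note: growth inhibition of MC-IXC cells, read out with a cell viability assay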
# Description: SANGER: Inhibition of human MC-IXC cell growth in a cell viability assay.
# [16] = tested on: BL-70; assay: SANGER: Inhibition of human BL-70 cell growth in a cell viability assay.
# [17] = tested on: MES-SA; assay: cells; details: Homo sapiens;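 note: growth inhibition of human MES-SA cells, read out with a cell viability assay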
# Description: SANGER: Inhibition of human MES-SA cell growth in a cell viability assay.
# [18] = tested on: CWR22R; assay: cells; details: Homo sapiens, 22Rv1;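 note: growth inhibition of 22Rv1 cells, read out with a cell viability assay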
# Description: SANGER: Inhibition of human 22RV1 cell growth in a cell viability assay.
# [19] = tested on: NCI-H1651; assay: cells; details: Homo sapiens;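 note: Read-out is a cell viability assay, with IC50 expressing inhibition of NCI-H1651 cell growth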
# Description: SANGER: Inhibition of human NCI-H1651 cell growth in a cell viability assay.
# [20] = tested on: CAL-51; assay: cells; details: Homo sapiens;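 note: human CAL-51 cell line, growth inhibition read out via a cell viability assay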
# Description: SANGER: Inhibition of human CAL-51 cell growth in a cell viability assay.
# [21] = tested on: LB996-RCC; assay: cells; details: Homo sapiens
# Description: SANGER: Inhibition of human LB996-RCC cell growth in a cell viability assay.
# [22] = tested on: FTC-133; assay: cells; details: Homo sapiens
# [23] = tested on: P12-Ichikawa; assay: cells; details: Homo sapiens
# [24] = tested on: D-336MG; assay: cells; details: Homo sapiens
# Description: SANGER: Inhibition of human D-336MG cell growth in a cell viability assay.
# [25] = tested on: NCI-H727; assay: cells; details: Homo sapiens;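 note: growth inhibition of human NCI-H727 cells, read out with a cell viability assay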
# Description: SANGER: Inhibition of human NCI-H727 cell growth in a cell viability assay.
# [26] = tested on: SCC-25; assay: cells; details: Homo sapiens;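 note: growth inhibition of SCC-25 cells, measured with a cell viability assay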
# Description: SANGER: Inhibition of human SCC-25 cell growth in a cell viability assay.
# [27] = tested on: RL95-2; assay: cells; details: Homo sapiens;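 note: RL95-2 growth inhibition determined through a cell viability readout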
# Description: SANGER: Inhibition of human RL95-2 cell growth in a cell viability assay.
# [28] = tested on: EW-7; assay: SANGER: Inhibition of human EW-7 cell growth in a cell viability assay.
# [29] = tested on: SK-OV-3; assay: cells; details: Homo sapiens;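 note: growth inhibition of SK-OV-3 human cells, read out with a cell viability assay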
# Description: SANGER: Inhibition of human SK-OV-3 cell growth in a cell viability assay.
# [30] = tested on: BFTC-905; assay: cells; details: Homo sapiens
# Description: SANGER: Inhibition of human BFTC-905 cell growth in a cell viability assay.
# [31] = tested on: HCC1806; assay: cells; details: Homo sapiens;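 note: growth inhibition of the cancer cell line, determined with a cell viability assay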
# Description: SANGER: Inhibition of human HCC1806 cell growth in a cell viability assay.
# [32] = tested on: BEN; assay: cells; details: Homo sapiens;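 note: growth inhibition of the BEN cell line, read out with a cell viability assay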
# Description: SANGER: Inhibition of human BEN cell growth in a cell viability assay.
# [33] = tested on: M059J; assay: cells; details: Homo sapiens;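 note: growth inhibition of M059J cells, read out with a cell viability assay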
# Description: SANGER: Inhibition of human M059J cell growth in a cell viability assay.
# [34] = tested on: IM-9; assay: SANGER: Inhibition of human IM-9 cell growth in a cell viability assay.
# [35] = tested on: BCPAP; assay: cells; details: Homo sapiens;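 note: growth inhibition of BCPAP cells, read out in a cell viability assay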
# Description: SANGER: Inhibition of human BCPAP cell growth in a cell viability assay.
# [36] = tested on: MDA-MB-231; assay: cells; details: Homo sapiens
# Description: SANGER: Inhibition of human MDA-MB-231 cell growth in a cell viability assay.
# [37] = tested on: COR-L23; assay: cells; details: Homo sapiens;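 note: cell viability assay measuring how strongly compounds suppress growth of COR-L23 cells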
# Description: SANGER: Inhibition of human COR-L23 cell growth in a cell viability assay.
# [38] = tested on: NCI-H2196; assay: cells; details: Homo sapiens;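 note: cell viability assay used as the readout of growth inhibition in NCI-H2196 cells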
# Description: SANGER: Inhibition of human NCI-H2196 cell growth in a cell viability assay.
# [39] = tested on: T98G; assay: cells; details: Homo sapiens;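 note: growth inhibition of T98G cells, read out by a cell viability assay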
# Description: SANGER: Inhibition of human T98G cell growth in a cell viability assay.
# [40] = tested on: NCI-H2122; assay: cells; details: Homo sapiens;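 note: growth inhibition of the cells, read out with a cell viability assay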
# Description: SANGER: Inhibition of human NCI-H2122 cell growth in a cell viability assay.
# [41] = tested on: OE33; assay: cells; details: Homo sapiens;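 note: growth inhibition of human OE33 cells, measured by a cell viability assay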
# Description: SANGER: Inhibition of human OE33 cell growth in a cell viability assay.
# [42] = tested on: NCI-H889; assay: cells; details: Homo sapiens;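 note: cell growth inhibition of the cell line, read out with a viability assay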
# Description: SANGER: Inhibition of human NCI-H889 cell growth in a cell viability assay.
# [43] = tested on: NCI-H748; assay: cells; details: Homo sapiens;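 note: growth inhibition of NCI-H748 cells, measured by a cell viability assay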
# Description: SANGER: Inhibition of human NCI-H748 cell growth in a cell viability assay.
# [44] = tested on: RO82-W-1; assay: cells; details: Homo sapiens;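 note: growth inhibition of human RO82-W-1 cells, measured with a cell viability assay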
# Description: SANGER: Inhibition of human RO82-W-1 cell growth in a cell viability assay.
# [45] = tested on: CAL-54; assay: cells; details: Homo sapiens;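 note: growth inhibition of CAL-54 cells, read out by a viability measurement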
# Description: SANGER: Inhibition of human CAL-54 cell growth in a cell viability assay.
# [46] = tested on: SW1710; assay: cells; details: Homo sapiens;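 note: growth inhibition of SW1710 cells, determined with a cell viability assay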
# Description: SANGER: Inhibition of human SW1710 cell growth in a cell viability assay.
# [47] = tested on: HT-29; assay: cells; details: Homo sapiens;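 note: growth inhibition of human HT-29 cells, read out by a cell viability assay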
# Description: SANGER: Inhibition of human HT-29 cell growth in a cell viability assay.
# [48] = tested on: HN; assay: cells; details: Homo sapiens
# Description: SANGER: Inhibition of human HN cell growth in a cell viability assay.
# [49] = tested on: NCI-H2342; assay: cells; details: Homo sapiens;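 note: growth inhibition of the cancer cell line, determined with a cell viability assay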
# Description: SANGER: Inhibition of human NCI-H2342 cell growth in a cell viability assay.
# [50] = tested on: DOK; assay: cells; details: Homo sapiens;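 note: cell viability assay read-out, values reflect inhibition of cell growth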
# Description: SANGER: Inhibition of human DOK cell growth in a cell viability assay.
# [51] = tested on: NCI-H520; assay: cells; details: Homo sapiens;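 note: growth inhibition of NCI-H520 cells, measured by a cell viability assay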
# Description: SANGER: Inhibition of human NCI-H520 cell growth in a cell viability assay.
# [52] = tested on: HuO-3N1; assay: cells; details: Homo sapiens;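 note: cell viability readout used to measure how strongly compounds suppress proliferation of human HuO-3N1 cells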
# Description: SANGER: Inhibition of human HuO-3N1 cell growth in a cell viability assay.
# [53] = tested on: RCM-1; assay: cells; details: Homo sapiens;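 note: growth inhibition of the RCM-1 line, determined with a cell viability readout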
# Description: SANGER: Inhibition of human RCM-1 cell growth in a cell viability assay.
# [54] = tested on: NCI-H1417; assay: cells; details: Homo sapiens;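 note: human NCI-H1417 cells, growth inhibition determined with a cell viability readout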
# Description: SANGER: Inhibition of human NCI-H1417 cell growth in a cell viability assay.
# [55] = tested on: MDA-MB-361; assay: cells; details: Homo sapiens
# [56] = tested on: SK-MES-1; assay: cells; details: Homo sapiens;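 note: growth inhibition of human SK-MES-1 cells, read out with a cell viability assay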
# Description: SANGER: Inhibition of human SK-MES-1 cell growth in a cell viability assay.
# [57] = tested on: SUP-T1; assay: cells; details: Homo sapiens;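 note: growth inhibition of human SUP-T1 cells, read out as cell viability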
# Description: SANGER: Inhibition of human SUP-T1 cell growth in a cell viability assay.
# [58] = tested on: MHH-CALL-2; assay: cells; details: Homo sapiens;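 note: growth inhibition of the cell line, read out in a cell viability assay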
# Description: SANGER: Inhibition of human MHH-CALL-2 cell growth in a cell viability assay.
# [59] = tested on: NCI-N87; assay: cells; details: Homo sapiens;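 note: growth inhibition of human NCI-N87 cells, read out with a cell viability assay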
# Description: SANGER: Inhibition of human NCI-N87 cell growth in a cell viability assay.
# [60] = tested on: HSC-4; assay: cells; details: Homo sapiens;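 note: growth inhibition of human HSC-4 cells, read out with a cell viability assay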
# Description: SANGER: Inhibition of human HSC-4 cell growth in a cell viability assay.
# [61] = tested on: HEC-1; assay: cells; details: Homo sapiens;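 note: growth inhibition of the cell line, read out with a cell viability assay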
# Description: SANGER: Inhibition of human HEC-1 cell growth in a cell viability assay.
smiles,measurement,setting,value
O=c1[nH]c2ccccc2n1C1CCN(Cc2ccc(-c3nc4cc5[nH]cnc5cc4nc3-c3ccccc3)cc2)CC1,pIC50,[1],< 5.59
same,pIC50,[2],< 5.59
same,pIC50,[3],5.81
same,pIC50,[4],< 5.59
same,pIC50,[5],< 5.59
same,pIC50,[6],< 5.59
same,pIC50,[7],< 5.59
same,pIC50,[8],< 5.59
same,pIC50,[9],< 5.59
same,pIC50,[10],< 5.59
same,pIC50,[11],< 5.59
same,pIC50,[12],< 5.59
same,pIC50,[13],< 5.59
same,pIC50,[14],< 5.59
same,pIC50,[15],5.69
same,pIC50,[16],< 5.59
same,pIC50,[17],< 5.59
same,pIC50,[18],< 5.59
same,pIC50,[19],< 5.59
same,pIC50,[20],< 5.59
same,pIC50,[21],< 5.59
same,pIC50,[22],< 5.59
same,pIC50,[23],< 5.59
same,pIC50,[24],< 5.59
same,pIC50,[25],< 5.59
same,pIC50,[26],< 5.59
same,pIC50,[27],< 5.59
same,pIC50,[28],< 5.59
same,pIC50,[29],< 5.59
same,pIC50,[30],< 5.59
same,pIC50,[31],< 5.59
same,pIC50,[32],< 5.59
same,pIC50,[33],< 5.59
same,pIC50,[34],< 5.59
same,pIC50,[35],< 5.59
same,pIC50,[36],< 5.59
same,pIC50,[37],< 5.59
same,pIC50,[38],< 5.59
same,pIC50,[39],< 5.59
same,pIC50,[40],< 5.59
same,pIC50,[41],5.72
same,pIC50,[42],< 5.59
same,pIC50,[43],< 5.59
same,pIC50,[44],< 5.59
same,pIC50,[45],< 5.59
same,pIC50,[46],5.86
same,pIC50,[47],5.61
same,pIC50,[48],< 5.59
same,pIC50,[49],6.03
same,pIC50,[50],< 5.59
same,pIC50,[51],5.95
same,pIC50,[52],< 5.59
same,pIC50,[53],< 5.59
same,pIC50,[54],< 5.59
same,pIC50,[55],6.31
same,pIC50,[56],5.68
same,pIC50,[57],< 5.59
same,pIC50,[58],< 5.59
same,pIC50,[59],< 5.59
same,pIC50,[60],< 5.59
same,pIC50,[61],< 5.59
Fc1cc(-c2cc[nH]/c(=N/c3ccc(-n4cnc(N5CCOCC5)n4)cc3)n2)cc(N2CCOCC2)c1,pIC50,[1],6.18
same,pIC50,[2],6.52
same,pIC50,[3],6.19
same,pIC50,[4],5.86
same,pIC50,[5],6.51
same,pIC50,[6],5.91
same,pIC50,[7],6.08
same,pIC50,[8],< 5.29
same,pIC50,[9],5.90
same,pIC50,[10],6.59
same,pIC50,[11],6.23
same,pIC50,[12],6.38
same,pIC50,[13],6.26
same,pIC50,[14],5.56
same,pIC50,[15],6.90
same,pIC50,[16],6.60
same,pIC50,[17],6.14
same,pIC50,[18],5.99
same,pIC50,[19],5.97
same,pIC50,[20],6.66
same,pIC50,[21],6.28
same,pIC50,[22],< 5.29
same,pIC50,[23],5.42
same,pIC50,[24],5.99
same,pIC50,[25],6.19
same,pIC50,[26],6.71
same,pIC50,[27],6.18
same,pIC50,[28],6.25
same,pIC50,[29],5.68
same,pIC50,[30],6.85
same,pIC50,[31],6.20
same,pIC50,[32],6.23
same,pIC50,[33],6.03
same,pIC50,[34],5.48
same,pIC50,[35],6.03
same,pIC50,[36],6.01
same,pIC50,[37],6.00
same,pIC50,[38],6.10
same,pIC50,[39],6.25
same,pIC50,[40],6.62
same,pIC50,[41],6.29
same,pIC50,[42],5.65
same,pIC50,[43],5.97
same,pIC50,[44],< 5.29
same,pIC50,[45],5.73
same,pIC50,[46],6.63
same,pIC50,[47],6.45
same,pIC50,[48],5.37
same,pIC50,[49],6.44
same,pIC50,[50],6.07
same,pIC50,[51],6.33
same,pIC50,[52],5.80
same,pIC50,[53],5.75
same,pIC50,[54],< 5.29
same,pIC50,[55],5.97
same,pIC50,[56],6.82
same,pIC50,[57],6.37
same,pIC50,[58],6.12
same,pIC50,[59],< 5.29
same,pIC50,[60],5.37
same,pIC50,[61],5.67
